Values after ≈ are worked out from the molar mass of the structure shown. “Also recorded” adds a separate entry of the source.
How the values were obtained:
Format in all cases: physicochemical
[1] = Relative stability studies: slurrying 1:1 mixtures of forms in 3:1 water:ethanol at various temperatures; conditions: slurry in 3:1 water:ethanol
Description: 1:1 mixtures of Form C and form G of Compound I were slurried in 3:1 water:ethanol at a range of temperatures to determine the relative stability at different temperatures. 5 mg of Form C was mixed with 5 mg of Form G in a glass vial. 1.0 ml of 3:1 water:ethanol was added and the resulting slurry was stirred at 5° C. for 10 days. The resulting solid was isolated by filtration and analysed by XRPD (see FIG. 17).
(§1) The above procedure was repeated at 25, 50 and 80° C.
1:1 mixtures of Form C and Form F were slurried in 3:1 water:ethanol at a range of temperatures to determine the relative stability at different temperatures. […] Ethanol was used in addition to water in order to increase the amount of Compound I in solution and so increase the rate of conversion between forms. Ethanol was chosen as no ethanol solvate of Compound I was known. 10 mg of Form C was mixed with 10 mg of Form F in a glass vial. 2.0 ml of 3:1 water:ethanol was added and the resulting slurry was stirred at 5° C. for 24 hours. Solid was isolated by filtration and analysed by XRPD.
as §1
1:1 mixtures of Form F and Form G were slurried in 3:1 water:ethanol at a range of temperatures to determine the relative stability at different temperatures. 10 mg of Form F was mixed with 10 mg of Form G in a glass vial. 2.0 ml of 3:1 water:ethanol was added and the resulting slurry was stirred at 5° C. for 24 hours. The resulting solid was isolated by filtration and analysed by XRPD. The above procedure was repeated at 25, 50 and 70° C. 70° C. was used instead of 80° C. in an attempt to reduce degradation.

[2] = Solubility analysis (in water); conditions: 25 °C, thermodynamic from solid
Description: This was measured by suspending enough Compound I in 0.25 mL of solvent (water) to give a maximum final concentration of ≧10 mg/ml of the parent free form of the compound. The suspension was equilibrated at 25° C. for 24 hrs followed by a pH check and filtration through a glass fibre C96 well plate. The filtrate was then diluted down by a factor of 101. Quantitation was by HPLC (Table XI) with reference to a standard, diluted and undiluted tests were injected. The solubility was calculated by integration of the peak area found at the same retention time as the peak maximum in the standard injection. If there is sufficient solid in the filter plate the XRPD is normally checked for phase changes, hydrate formation, amorphization, crystallization, etc.

[3] = Interconversion studies (slurries in EtOAc, MeOH and water); conditions: ambient conditions
Description: Interconversion studies between the different forms of Compound I described herein were carried out using the general procedure outlined here:
Interconversion studies were conducted in EtOAc, MeOH and water with materials giving XRPD patterns A, P, C and F. Attempts were made to monitor the presence of the different forms of Compound I in the methanol and ethyl acetate interconversion slurries using Raman analysis and XRPD. The presence of the solvents was dominant in the Raman spectra of the slurries. […] After slurrying for 10 days, pattern A was obtained from MeOH. Pattern C was obtained from all samples slurried in EtOAc or water. […] Interconversion data can be found in Tables XVII.

[4] = Stability studies at 40° C./75% RH (physical and chemical stability, XRPD)
From the text: In some embodiments, less than 25% of the solid form of Compound I decomposes, in some embodiments, less than about 20%, less than about 15%, less than about 10%, less than about 5%, less than about 3%, less than about 1%, less than about 0.5% of the form of Compound I decomposes under the conditions specified. In some embodiments, no detectable amount of the solid form of Compound I decomposes. […] In some embodiments, less than 25% of the solid form of Compound I changes into one or more different physical forms when subjected to specified conditions. In some embodiments, less than about 20%, less than about 15%, less than about 10%, less than about 5%, less than about 3%, less than about 1%, less than about 0.5% of the solid form of Compound I changes into one or more different physical forms of Compound I when subjected to specified conditions. In some embodiments, no detectable amount of the solid form of Compound I changes into one or more physically different solid forms of Compound I.

[5] = Apparent (non-equilibrium) solubilities of Form C in various solvents; conditions: thermodynamic from solid
Description: Table XIII contains representative apparent (non-equilibrium) solubilities of Form C in various exemplary solvents.
Fifty (50.0) mg of Compound I, Form C was weighed into a small, screw-top vial. The relevant solvent was added in portions until a clear solution was obtained. In several cases, solubilization was aided by heating with a heat gun and then allowed to cool down to rt. The data provided in Table XIII are representative and some variability may occur between lots of a particular sample, e.g., about 10%.

[6] = Gravimetric vapour sorption (GVS) studies
Description: All samples were run on a Hiden IGASorp moisture sorption analyzer running CFRSorp software. Sample sizes were typically 10 mg. A moisture absorption-desorption isotherm was performed as outlined below in Table X (2 scans giving 1 complete cycle). All samples were loaded/unloaded at typical room humidity and temperature (40% RH, 25° C.). All samples were analysed by XRPD post GVS analysis. The standard isotherm was performed at 25° C. at 10% RH intervals over a 0-90% RH range.

solubility at 24 h [2]: ≥ 0.02 mg/mL
results of stability studies as seen by XRPD (before and after spectra) [4]: before and after spectra are similar
time remaining in substantially the same physical form ([4]; 40° C./75% RH): at least two
solubility ([5]; organic solvent or mixture, apparent, 1,4-dioxane): 100 mg/mL (≈ 247 mM)
solubility ([5]; organic solvent or mixture, apparent, 1-Butanol): 50 mg/mL (≈ 124 mM)
solubility ([5]; organic solvent or mixture, apparent, 2-Butanone): 50 mg/mL (≈ 124 mM)
solubility ([5]; organic solvent or mixture, apparent, 2-Propanol): 50 mg/mL (≈ 124 mM)
solubility ([5]; organic solvent or mixture, apparent, 2-Propyl Acetate): < 20 mg/mL
solubility ([5]; organic solvent or mixture, apparent, Acetone): 50 mg/mL (≈ 124 mM)
solubility ([5]; organic solvent or mixture, apparent, Acetonitrile): 33 mg/mL (≈ 81.6 mM)
solubility ([5]; organic solvent or mixture, apparent, Butyl acetate): 33 mg/mL (≈ 81.6 mM)
solubility ([5]; organic solvent or mixture, apparent, DMSO): 100 mg/mL (≈ 247 mM)
solubility ([5]; organic solvent or mixture, apparent, Dimethylformamide): 100 mg/mL (≈ 247 mM)
solubility ([5]; organic solvent or mixture, apparent, Ethanol): 50 mg/mL (≈ 124 mM)
solubility ([5]; organic solvent or mixture, apparent, Ethyl Acetate): 20 mg/mL (≈ 49.5 mM)
solubility ([5]; organic solvent or mixture, apparent, Heptane): < 20 mg/mL
solubility ([5]; organic solvent or mixture, apparent, Hexafluorophenol): 100 mg/mL (≈ 247 mM)
solubility ([5]; organic solvent or mixture, apparent, Methanol): 100 mg/mL (≈ 247 mM)
solubility ([5]; organic solvent or mixture, apparent, Methyl isobutyl ketone): 50 mg/mL (≈ 124 mM)
solubility ([5]; organic solvent or mixture, apparent, Methylene Chloride): < 20 mg/mL
solubility ([5]; organic solvent or mixture, apparent, N,N-dimethylacetamide): 100 mg/mL (≈ 247 mM)
solubility ([5]; organic solvent or mixture, apparent, Tert-butyl methyl ether): < 20 mg/mL
solubility ([5]; organic solvent or mixture, apparent, Tetrahydrofuran): 20 mg/mL (≈ 49.5 mM)
solubility ([5]; organic solvent or mixture, apparent, Toluene): 20 mg/mL (≈ 49.5 mM)
solubility ([5]; organic solvent or mixture, apparent, cyclohexane): < 20 mg/mL
solubility ([5]; apparent, Water): < 20 mg/mL
total weight gain from 0 to 90% RH ([6]; 0 to 90% RH, T=25° C.): 0.15%
weight gain up to 60% RH ([6]; up to 60% RH, 25° C.): negligible
SMILES: NC(=O)c1ccc(N(C(N)=O)c2c(F)cccc2F)nc1-c1ccc(F)cc1F [Form C, 2-(2,4-difluorophenyl)-6-(1-(2,6-difluorophenyl)ureido)nicotinamide]
relative stability between forms [1]: more stable than Form G at a temperature of 50 °C or above; also recorded: more stable than Form F at 50 and 80 °C
relative stability of unsolvated forms [3]: most stable unsolvated form at ambient conditions

Source: patent US20110086891A1, “Solid Forms of 2-(2,4-Difluorophenyl)-6-(1-(2,6-Difluorophenyl)Ureido)Nicotinamide)” (Vertex Pharmaceuticals Incorporated, priority 2009, published 2011)
